Reference: patent publication US9290451B2 (Hoffmann-La Roche Inc., priority 2011, dated 2016)

Key:
human CB1 receptors = human CB1 receptors (Homo sapiens (Human), UniProt P21554); test: cAMP assay, CHO cells expressing human CB1 receptors; assay type: cell-based; details: CHO cells expressing human CB1, cAMP; read-out: human CB1 EC50
In short: (§1)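 EC50 values come from a TR-FRET cAMP read-out (standard curve 10 μM–0.13 nM cAMP) after 30 min compound exposure at 30 °C in IBMX (1 mM)-containing Krebs Ringer bicarbonate buffer, using CHO cells carrying human CB1 or CB2 receptors.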

human CB2 receptors = human CB2 receptors (Homo sapiens (Human), UniProt P34972); test: cAMP assay, CHO cells expressing human CB2 receptors; assay type: cell-based; details: CHO cells expressing human CB2, cAMP; read-out: human CB2 EC50
In short: as §1

Sequence of human CB1 receptors (P21554 whole entry): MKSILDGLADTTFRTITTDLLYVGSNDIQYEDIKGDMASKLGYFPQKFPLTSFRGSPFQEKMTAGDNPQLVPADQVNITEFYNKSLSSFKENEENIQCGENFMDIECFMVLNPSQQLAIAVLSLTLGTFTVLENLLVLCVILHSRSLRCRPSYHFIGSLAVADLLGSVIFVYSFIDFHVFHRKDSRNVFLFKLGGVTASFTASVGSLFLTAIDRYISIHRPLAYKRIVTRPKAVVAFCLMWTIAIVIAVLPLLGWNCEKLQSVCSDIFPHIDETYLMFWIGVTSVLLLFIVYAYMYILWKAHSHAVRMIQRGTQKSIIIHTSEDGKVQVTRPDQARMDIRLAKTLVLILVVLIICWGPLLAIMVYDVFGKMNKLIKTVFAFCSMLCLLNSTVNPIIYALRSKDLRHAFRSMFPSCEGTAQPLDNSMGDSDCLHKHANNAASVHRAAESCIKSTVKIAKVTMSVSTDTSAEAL
Sequence of human CB2 receptors (P34972 whole entry): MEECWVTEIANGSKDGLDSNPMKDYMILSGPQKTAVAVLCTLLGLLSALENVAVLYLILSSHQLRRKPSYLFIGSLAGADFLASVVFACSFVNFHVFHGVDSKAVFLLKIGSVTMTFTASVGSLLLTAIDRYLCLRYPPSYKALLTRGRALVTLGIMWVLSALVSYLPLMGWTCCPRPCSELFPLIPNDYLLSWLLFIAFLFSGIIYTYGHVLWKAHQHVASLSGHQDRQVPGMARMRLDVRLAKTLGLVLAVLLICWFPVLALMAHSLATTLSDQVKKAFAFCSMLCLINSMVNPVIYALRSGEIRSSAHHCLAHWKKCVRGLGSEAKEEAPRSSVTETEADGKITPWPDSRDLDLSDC

Row | SMILES | EC50 (human CB1 receptors) [nM] | EC50 (human CB2 receptors) [nM]
1 | CCC(CC)(NC(=O)c1ccc(C2CCOCC2)c(OCC2CC2)n1)C(=O)NC [Example 85, 6-Cyclopropylmethoxy-5-(tetrahydro-pyran-4-yl)-pyridine-2-carboxylic acid (1-ethyl-1-methylcarbamoyl-propyl)-amide] | > 10000 | 186
2 | CCC(CC)(NC(=O)c1ccc(N2CC(F)(F)C2)c(OCC2CC2)n1)C(=O)NC [Example 86, 6-Cyclopropylmethoxy-5-(3,3-difluoro-azetidin-1-yl)-pyridine-2-carboxylic acid (1-ethyl-1-methylcarbamoyl-propyl)-amide] | > 10000 | 33.1
3 | CNC(=O)C(C)(C)NC(=O)c1ccc(N2CC(F)(F)C2)c(OCC2CC2)n1 [Example 87, 6-Cyclopropylmethoxy-5-(3,3-difluoro-azetidin-1-yl)-pyridine-2-carboxylic acid (1-methyl-1-methylcarbamoyl-ethyl)-amide] | > 10000 | 476
4 | CC(C)(NC(=O)c1ccc(Cl)c(-c2cccc(Cl)c2)n1)c1ncon1 [Example 88, 5-Chloro-6-(3-chloro-phenyl)-pyridine-2-carboxylic acid (1-methyl-1-[1,2,4]oxadiazol-3-yl-ethyl)-amide] | > 10000 | 356
5 | COc1ccc(C(=O)NC(C)(C)c2noc(C)n2)nc1-c1cccc(Cl)c1 [Example 89, 6-(3-Chloro-phenyl)-5-methoxy-pyridine-2-carboxylic acid [1-methyl-1-(5-methyl-[1,2,4]oxadiazol-3-yl)-ethyl]-amide] | 1360 | 119
6 | COc1ccc(C(=O)NC(C)(C)c2ncco2)nc1-c1cccc(Cl)c1 [Example 90, 6-(3-Chloro-phenyl)-5-methoxy-pyridine-2-carboxylic acid (1-methyl-1-oxazol-2-yl-ethyl)-amide] | > 10000 | 217
7 | CCC(CC)(NC(=O)c1ccc(Cl)c(-c2cccc(Cl)c2)n1)C(=O)NC [Example 91, 5-Chloro-6-(3-chloro-phenyl)-pyridine-2-carboxylic acid (1-ethyl-1-methylcarbamoyl-propyl)-amide] | > 10000 | 632
8 | COC(=O)C1CCCCC1NC(=O)c1cccc(C2CCCCC2)n1 (stereo not drawn) [Example 92, 2-[(6-Cyclohexyl-pyridine-2-carbonyl)-amino]-cyclohexanecarboxylic acid methyl ester] | > 10000 | 320
9 | CC(C)(NC(=O)c1ccc(C2CCOCC2)c(OCC2CC2)n1)c1ncco1 [Example 93, 6-Cyclopropylmethoxy-5-(tetrahydro-pyran-4-yl)-pyridine-2-carboxylic acid (1-methyl-1-oxazol-2-yl-ethyl)-amide] | > 10000 | 120
10 | O=C(NN1CCCCC1)c1cccc(C2CCCC2)n1 [Example 94, 6-Cyclopentyl-pyridine-2-carboxylic acid piperidin-1-ylamide] | > 10000 | 129
11 | CC(C)(NC(=O)c1ccc(C2CC2)c(-c2cccc(Cl)c2)n1)c1ncco1 [Example 95, 6-(3-Chloro-phenyl)-5-cyclopropyl-pyridine-2-carboxylic acid (1-methyl-1-oxazol-2-yl-ethyl)-amide] | > 10000 | 83.9
12 | Cc1nc(C(C)(C)NC(=O)c2ccc(C3CC3)c(-c3cccc(Cl)c3)n2)no1 [Example 96, 6-(3-Chloro-phenyl)-5-cyclopropyl-pyridine-2-carboxylic acid [1-methyl-1-(5-methyl-[1,2,4]oxadiazol-3-yl)-ethyl]-amide] | 1440 | 95.8
13 | NC(=O)[C@H](CC1CC1)NC(=O)c1ccc(C2CC2)c(-c2cccc(Cl)c2)n1 [Example 97, 6-(3-Chloro-phenyl)-5-cyclopropyl-pyridine-2-carboxylic acid ((S)-1-carbamoyl-2-cyclopropyl-ethyl)-amide] | > 10000 | 508
14 | NC(=O)[C@H](CC1CC1)NC(=O)c1ccc(C2CC2)c(OCC2CC2)n1 [Example 98, 5-Cyclopropyl-6-cyclopropylmethoxy-pyridine-2-carboxylic acid ((S)-1-carbamoyl-2-cyclopropyl-ethyl)-amide] | > 10000 | 27.6
15 | O=C(N[C@@H](CC1CC1)c1nccs1)c1ccc(C2CC2)c(OCC2CC2)n1 [Example 99, 5-Cyclopropyl-6-cyclopropylmethoxy-pyridine-2-carboxylic acid ((S)-2-cyclopropyl-1-thiazol-2-yl-ethyl)-amide] | > 10000 | 59.7
16 | CC(C)C[C@H](NC(=O)c1ccc(C2CC2)c(OCC2CC2)n1)C(N)=O [Example 100, 5-Cyclopropyl-6-cyclopropylmethoxy-pyridine-2-carboxylic acid ((S)-1-carbamoyl-3-methyl-butyl)-amide] | 801 | 1.2
17 | CC(C)(NC(=O)c1ccc(C2CCOC2)c(-c2cccc(Cl)c2)n1)c1nccs1 (stereo not drawn) [Example 101, 6-(3-Chloro-phenyl)-5-(tetrahydro-furan-3-yl)-pyridine-2-carboxylic acid (1-methyl-1-thiazol-2-yl-ethyl)-amide] | > 10000 | 102
18 | Cc1nc(C(C)(C)NC(=O)c2ccc(N3CC(F)(F)C3)c(OCC3CC3)n2)no1 [Example 102, 6-Cyclopropylmethoxy-5-(3,3-difluoro-azetidin-1-yl)-pyridine-2-carboxylic acid [1-methyl-1-(5-methyl-[1,2,4]oxadiazol-3-yl)-ethyl]-amide] | > 10000 | 62.7
19 | NC(=O)[C@H](CC1CC1)NC(=O)c1ccc(N2CC(F)(F)C2)c(OCC2CC2)n1 [Example 103, 6-Cyclopropylmethoxy-5-(3,3-difluoro-azetidin-1-yl)-pyridine-2-carboxylic acid ((S)-1-carbamoyl-2-cyclopropyl-ethyl)-amide] | > 10000 | 7
20 | CC(C)(NC(=O)c1ccc(Cl)c(-c2cccc(Cl)c2)n1)c1ncco1 [Example 104, 5-Chloro-6-(3-chloro-phenyl)-pyridine-2-carboxylic acid (1-methyl-1-oxazol-2-yl-ethyl)-amide] | > 10000 | 517
21 | CC(C)C[C@H](NC(=O)c1ccc(Cl)c(-c2cccc(Cl)c2)n1)C(N)=O [Example 105, 5-Chloro-6-(3-chloro-phenyl)-pyridine-2-carboxylic acid ((S)-1-carbamoyl-3-methyl-butyl)-amide] | > 10000 | 208
22 | Cc1nc(C(C)(C)NC(=O)c2ccc(C3CCCC3)c(-c3cccc(Cl)c3)n2)no1 [Example 106, 6-(3-Chloro-phenyl)-5-cyclopentyl-pyridine-2-carboxylic acid [1-methyl-1-(5-methyl-[1,2,4]oxadiazol-3-yl)-ethyl]-amide] | > 10000 | 215
23 | NC(=O)[C@H](CC1CC1)NC(=O)c1ccc(C2CCCC2)c(OCC2CC2)n1 [Example 107, 5-Cyclopentyl-6-cyclopropylmethoxy-pyridine-2-carboxylic acid ((S)-1-carbamoyl-2-cyclopropyl-ethyl)-amide] | 1460 | 10.7
24 | Cc1nc(C(C)(C)NC(=O)c2ccc(Cl)c(OCC3CC3)n2)no1 [Example 108, 5-Chloro-6-cyclopropylmethoxy-pyridine-2-carboxylic acid [1-methyl-1-(5-methyl-[1,2,4]oxadiazol-3-yl)-ethyl]-amide] | > 10000 | 190
